Experimental data published in publication PMC8414802, “Hair Cell Generation in Cochlear Culture Models Mediated by Novel γ-Secretase Inhibitors” (Frontiers in Cell and Developmental Biology, 2021).
Where two headings read alike, the source gives them in different places.

Legend:
[1] = test system: hair cell genes Atoh1, Pou4f3, Myo7a in OC explants; assay: Hair cell gene expression in organ of Corti explants (RT-PCR); assay type: cell-based, mouse; conditions: 5 μM, 4 days, vs DMSO
Protocol: OC explants were isolated from postnatal day 2 (P2) Wistar rats, P0-P2 mice (Lgr5-GFP or Atoh1-nGFP mice). Dissection of the cochlea under a stereomicroscope (Nikon SMZ800, Japan) allowed OC separation from stria vascularis and modiolus, and the sensory epithelium was plated with hair cells facing up on Cell-Tak (Corning, United States)-coated transwell-clear inserts (6-well format, 0.4 μm pore, Corning, United States). Dissection medium was exchanged for 1.5 ml full otic medium supplemented with 10% FBS (Invitrogen) and 0.01% Ampicillin (Sigma), added under the insert membrane, maintaining the OC under a thin film of medium during culture at 37°C. 5-ethyl-2′-deoxyuridine (EdU, 5 μM, Life Technologies) was added directly in the medium when indicated.
Concentrations of small molecule GSIs {LY411575, CPD3, CPD8, DAPT (N-[N-(3,5-Difluorophenacetyl)-L-alanyl]-S-phenylglycine t-butyl ester; Sigma)} were prepared in DMSO and are indicated in Figure Legends and Results. DMSO included as Control. Treatment groups were assigned randomly.
(§1) Cells or tissue were lysed using RLT Lysis Buffer (Qiagen) and high purity RNA was prepared on the MagNA Pure instrument using MagNA Pure 96 Cellular RNA LV Kit (Roche). Reagents from Thermo Fisher were used for cDNA synthesis by reverse transcription using random hexamers. Resulting cDNA was RNAse H treated and amplified by TaqMan GEX mastermix and PCR primers and probes for human ATOH1 (Hs00944192_s1) and TBP (Hs00427620_m1), mouse Tbp (Mm00446971_m1), Atoh1 (Mm00476035_s1), Hes5 (Mm00439311_g1), Pouf4s (Mm04213795_s1), and Myo7a (Mm01274015_m1) on the Applied Biosystems QuantStudio 7 Flex Real-Time PCR System. Normalized to Tbp, relative gene expression fold-change was quantified and compared between experimental and control conditions by ΔΔCt calculation.
FIGURE 2 GSI-mediated induction of hair cell gene expression and de novo generation of hair cells in the neonatal cochlear sensory epithelium. (A) Gene expression changes of Atoh1, Pou4f3, and Myo7a in response to Notch pathway inhibition by CPD3 (solid lines, triangles) and CPD8 (dashed lines, open square) in otic spheres. Gene expression is reported as fold-change relative to carrier control-treated (DMSO, 0.05%). (n = 9–12). […] (B) Gene expression analysis for the hair cell genes Atoh-1, Myo7a, and Pou4f3. DMSO control n = 13, CPD3 n = 12, LY411575 n = 9, DAPT n = 6 from 2–4 independent experiments. OC explants were cultured for 4 days with/without GSI prior to lysis and analysis. One-way ANOVA with Dunnett’s multiple comparison test, each condition compared to DMSO control. (*p < 0.05, **p < 0.005, ***p < 0.001). (C) Cell counts of Atoh1 positive HCs (OHC left, IHC right) in the mouse cochlear sensory epithelium in the mid-apex region after 7 days in culture with different γ-secretase inhibitors. One-way ANOVA Dunnett’s multiple comparison test, each condition compared to DMSO control. (*p < 0.05; n = 3–5 independent experiments). (D) Quantification of Pou4f3 positive HCs (OHC left, IHC right) in the cochlear sensory epithelium from P2 rats in the apical domain after 8 days in culture with different γ-secretase inhibitors. One-way ANOVA with Dunnett’s multiple comparison test, each condition compared to DMSO control (*p < 0.05, n = 3). Representative immunohistological images of the apical domain after 8 days incubation (inset). scale bar = 20 μm. (E) Quantification of Pou4f3 positive OHCs in the apex, middle and basal domain of organ of Corti explants from rats after 4 days of CPD3 treatment compared to DMSO (*p < 0.05, unpaired t-test) n = 4–6 explants from 2 independent experiments.

[2] = test system: Notch-dependent expression of ATOH1 in LS174T cells; assay: ATOH1 expression induction in LS174T cell line by GSIs (RT-PCR); assay type: cell-based, human; conditions: GSI treatment 72 h, fold-change vs 0.05% DMSO, read-out: IC50 for ATOH1 expression upregulation
Protocol: The human colon cancer cell line LS174T (CL-188; ATCC) was cultured without antibiotics in 1% FBS/Eagle’s Minimum Essential Medium (MEM; Thermo Fisher) ([Asakura et al., 2018]). […]
as §1
Statistical analysis was performed with GraphPad Prism software (Prism9; GraphPad Software Inc., San Diego, CA, United States). For explant cultures, when the number of explants/replicates was not sufficient to test for Gaussian distribution normal distribution of the data was assumed based on previous experiments ([Perny et al., 2017]; [Erni et al., 2019]). Alternatively, the distribution of the datasets was tested by D’Agostino and Pearson normality test. Unpaired t-tests were used to compare parametric data sets of two groups. Welch’s correction was applied if variances were not equal. For non-parametric data, the Mann–Whitney test was adopted. One-way ANOVA was used to determine the difference in means among multiple groups and multiple comparison correction was tested. Graphs indicate the single data point, the mean values ± standard deviation. IC50s were calculated by non-linear regression of data normalized by percent change from controls to compare multiple experiments. Differences in IC50s from Best fit data were compared by Least Squares (F-test; Extra sum of squares; alpha = 0.05).
To measure the relative potency between different GSIs, a pharmacological assay was initially used to identify the dose ranges effective to induce ATOH1 expression. The cell line LS174T, a human colorectal adenocarcinoma, was used to evaluate Notch-dependent expression of ATOH1 ([Kazanjian et al., 2010]). Two compounds from Eli Lilly, designated LY3056480 (CPD3) and LY3056359 (CPD8) (Figures 1A,B) were compared with the commercially available GSIs LY411575 and DAPT. […] The intermediate potency of CPD3 and 8 was likely to be adequate to achieve levels above the IC50 after dilution into perilymph in the inner ear.

[3] = test system: Atoh1, Pou4f3, Myo7a expression in otic spheres; assay: Otic sphere assay, hair cell gene expression; assay type: cell-based, mouse
Protocol: The generation of otic spheres followed previously described protocols ([Oshima et al., 2009]) with modifications during differentiation phase to test GSIs. Briefly, OCs were dissociated and single cells were deposited in ultralow-cluster plates (Corning) and expanded in “full otic medium” consisting of DMEM/F12, supplemented with N2, B27 (Thermo Fisher), EGF (20 ng/ml; Chemicon), bFGF (10 ng/ml; Chemicon), IGF-1 (50 ng/ml; Chemicon), and heparan sulfate (50 ng/ml; Sigma-Aldrich). After culturing for 3–4 days at 37°C, spheres were collected, plated in cell culture-treated 96 well-plate and cultured in DMEM/F12, supplemented with N2, B27 with/without GSIs for 7 days after which they were lysed for RNA extraction.
as §1
CPD3 and CPD8 were further compared for their potency to induce hair cell gene expression in otic sphere assays ([Oshima et al., 2009]). Cells were first expanded in presence of growth factors, and in a second step differentiated by growth factor removal and GSI treatment. […] This indicated a modest advantage of CPD3 in eliciting expression of the early hair cell marker Atoh1, but similar potency on expression of some later markers of HC differentiation, Pou4f3 and Myo7a (Figure 2A). From the results of two screening assays, CPD3 was selected for additional characterization studies based on its lower IC50 to induce Atoh1/ATOH1 expression in the otic spheres and LS174T cells, respectively.

[4] = Inner ear pharmacokinetics after transtympanic administration (perilymph, plasma; LC-MS/MS); assay type: in vivo, guinea pig; conditions: 10% POX, sampled at 0.5, 1 and 6 h post-dosing
Protocol: Female albino Hartley guinea pigs, 250 g, from Charles River (France), housed in macrolon cages (2/cage; Innocage Rat Static-Innovive, Paris) with filter air, were maintained at 22 ± 2°C on a 12-h light cycle with standard A04C (UAR) diet and water “ad libitum.” Lgr5-GFP mice containing an EGFP-IRES-CreERT2 knock-in allele at the Lgr5 locus were obtained from the Jackson Labs (Stock 008875, C57BL/6J/RccHsd background). Atoh1-nGFP transgenic mice (C57Bl/6J background) were from Jane Johnson ([Lumpkin et al., 2003]). Wistar rats were obtained from Charles River.
γ-secretase inhibitors pharmacokinetic studies tested CPD3, CPD8 (Eli Lilly) or LY411575 (Stemcell Technologies) each formulated at 3.4 mg/ml in the following vehicles, 10% Poloxamer 338 (Sigma), 20% Poloxamer 338, 70% PEG400 (Sigma) or 1% hyaluronic acid (HA-700; Lifecore, Chaska, MN, United States) all prepared with PBS (pH 6.2). A single 70 μl injection of the formulated compound (total dose, 870 μg/kg) was delivered to the middle ear space of isoflurane-anesthetized guinea pigs by transtympanic administration. Perilymph from treated animals (perilymph volumes, >2 μl) was collected at time points up to 48 h post-administration (CILcare, Montpellier, France). Briefly, concentrations of each compound in perilymph and plasma, as well as controls prepared in artificial perilymph, were measured by LC-MS/MS on an AB Sciex, API 4000 mass spectrometer using an Onyx C18 5 μm 50^∗2.0 mm separation column (Oroxcell, Romainville, France).
To verify this, in vivo compound concentrations were measured in perilymph of guinea pigs after intratympanic delivery of GSIs into the middle ear. Initially, four vehicle formulations, with different physical properties, were tested, poloxamer 338 (POX; at 10% or 20%), hyaluronic acid (HA), or polyethylene glycol 400 (PEG). For this comparison only one GSI was prepared in each formulation (CPD3, 3.4 mg/ml) and a single dose was injected into the middle ear. Perilymph and plasma were sampled for 48 h (Figure 1D). […] Next, using only 10% POX as vehicle, inner ear adsorption was compared between CPD3, CPD8, and LY411575 by transtympanic injections (Figure 1D, inset). […] Each compound achieved levels several folds above their respective IC50s. The mean maximal perilymph concentration of CPD3 at 0.5 h post-dosing was 85,489 ng/ml (183 μM), then declined at 1 h to 12,928 ng/ml (27.7 μM), and at 6 h to 12,652 ng/ml (27.1 μM). GSIs in plasma samples were not detected (data not shown).

IC50 [2] [µM]	IC50 ([3]; Mus musculus, 168 h, 7 days differentiation with GSI, read-out: IC50 for Atoh1 upregulation) [µM]	IC50 ([2]; Homo sapiens) [µM]	Perilymph concentrations quantifiable [4]	SMILES	Atoh1 expression [1] [fold]	Myo7a expression [1] [fold]	Pou4f3 expression [1] [fold]	Induction of Atoh1, Pou4f3 and Myo7a expression ([3]; dose-responsive, p < 0.05)
1.4	–	–	–	C[C@H](NC(=O)Cc1cc(F)cc(F)c1)C(=O)N[C@H](C(=O)OC(C)(C)C)c1ccccc1 [DAPT, N-[N-(3,5-Difluorophenacetyl)-L-alanyl]-S-phenylglycine t-butyl ester]	2.36 ± 0.39	1.59 ± 0.21	2.14 ± 0.36	–
–	0.303	0.062	quantifiable at all time points	C[C@H](NC(=O)CCC(F)(F)F)C(=O)N[C@@H]1C(=O)C=C2N(CCC2(C)C)c2ncccc21 [CPD8]	–	–	–	significantly induced
